Tests used:
5-HT2A [1] = molecular target: T1, 5-HT2A (Rattus norvegicus, UniProt P14842); assay: 5-HT2A Radioligand Receptor Binding Assay ([3H]-Ketanserin, cerebral frontal cortex membranes); settings: 0.5 nM [3H]-Ketanserin
T1 construct: Cerebral frontal cortex was homogenized in 10 volumes of ice cold 0.32 M sucrose; from tissue; host or cells: rat cerebral frontal cortex membranes
Experimental: 5-HT2A Radioligand Receptor Binding Assay
Rats (male Sprague-Dawley, 200-250 g) were used. Cerebral frontal cortex was homogenized in 10 volumes of ice cold 0.32 M sucrose in 5 mM Tris-HCl ([…]) buffer. After centrifugation of the homogenate (1,000×g for 10 minutes) the supernatant was then recentrifuged at 48,000×g for 15 minutes. The resulting pellet was gently homogenized in an equal volume of 50 mM Tris-HCl buffer (pH 7.4) and incubated at 37° C. for 10 minutes. Membranes were then collected by centrifugation as above described and finally resuspended in 10 volumes of 50 mM Tris-HCl buffer (pH 7.4).
For displacement experiments membranes (980 μl) were diluted in 50 mM Tris-HCl buffer (pH 7.4) to a final concentration of 1:100 (w/v); the tissue suspension was then incubated at 37° C. for 10 minutes in a final volume of 1 ml in the presence of 0.5 nM [^3H]-Ketanserin. Non-specific binding was determined by incubating similar samples with unlabelled methysergide (100 μM). After incubation, samples prepared in a 24 wells cell culture cluster (Costar) were rapidly filtered by Inotech Cell Harvester (IH 201 filters). The filters were washed three times with 2 ml ice-cold Tris-HCl buffer and placed in polyethylene vials, then 4 ml of Filter Count scintillation cocktail (Packard) were added. The radioactivity present was counted by liquid scintillation spectrometry.
The affinity values (IC50) for the compounds were obtained by a nonlinear least squares regression analysis on the basis of a one binding site model.

5-HT2A [2] = molecular target: 5-HT2A (Mus musculus, UniProt P35363); assay: 5-HT2 Functional Assay (PI Turnover) in cerebral cortex miniprisms; type: biochemical; settings: 10 μM compound, inhibition of PI turnover accumulation induced by 100 μM 5-HT
5-HT2A (Mus musculus, UniProt P35363), sequence (P35363 whole entry, looked up): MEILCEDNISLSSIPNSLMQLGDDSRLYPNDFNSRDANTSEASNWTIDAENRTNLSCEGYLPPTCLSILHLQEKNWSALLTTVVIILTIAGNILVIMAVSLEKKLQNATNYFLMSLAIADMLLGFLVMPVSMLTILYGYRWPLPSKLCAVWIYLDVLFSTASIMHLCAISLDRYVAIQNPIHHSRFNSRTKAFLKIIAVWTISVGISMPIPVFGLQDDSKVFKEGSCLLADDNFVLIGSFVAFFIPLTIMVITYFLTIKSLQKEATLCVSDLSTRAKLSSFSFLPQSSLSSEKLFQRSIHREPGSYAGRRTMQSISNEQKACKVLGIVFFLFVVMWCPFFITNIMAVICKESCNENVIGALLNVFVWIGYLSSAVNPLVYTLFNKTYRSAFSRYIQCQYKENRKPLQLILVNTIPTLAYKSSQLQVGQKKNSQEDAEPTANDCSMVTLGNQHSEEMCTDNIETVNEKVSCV
Experimental: 5-H T2 Functional Assay (PI Turnover)
Cross-chopped miniprisms (350×350 μm) were prepared from mouse whole cerebral cortices and incubated for 60 minutes at 37° C. in Krebs-Henseleit buffer containing 2 g/l glucose.
Cerebral cortex miniprisms were distributed in vials and incubated for 30 minutes with approximately 170 nM [^3H]-myoinositol (10-20 Ci/mmol) and […] lithium chloride. Samples were divided in different groups in triplicate: control, 100 μM 5-HT, 10 and 30 μM flibanserin+100 μM 5-HT, as standards, and 10 μM of the different compound under investigation+100 μM 5-HT. When 5-HT was added the incubation continued for 45 minutes. Compounds under investigation and flibanserin were added 10 minutes before dispensing 5-HT. Incubation was terminated by the addition of 940 μl chloroform-methanol (1:2 v/v). Further aliquots of chloroform (310 μl) and water (310 μl) were added and labeled inositol phosphates (1 Ps) were extracted from the aqueous phase by ion exchange chromatography using Dowex resin in the formate form. After addition of 10 ml of PicoFluor 40 scintillation cocktail (Packard), the radioactivity present in an aliquot (400 μl) of the aqueous extract was counted by liquid scintillation spectrometry.

5-HT1A [3] = molecular target: T2, 5-HT1A (Homo sapiens, UniProt P08908); assay: 5-HT1 Functional Assay (cAMP) in CHO/5-HT1A cells; type: cell-based; set-up: expressed in transfected cells; host or cells: CHO/5-HT1A cells
T2 sequence (P08908 1-422): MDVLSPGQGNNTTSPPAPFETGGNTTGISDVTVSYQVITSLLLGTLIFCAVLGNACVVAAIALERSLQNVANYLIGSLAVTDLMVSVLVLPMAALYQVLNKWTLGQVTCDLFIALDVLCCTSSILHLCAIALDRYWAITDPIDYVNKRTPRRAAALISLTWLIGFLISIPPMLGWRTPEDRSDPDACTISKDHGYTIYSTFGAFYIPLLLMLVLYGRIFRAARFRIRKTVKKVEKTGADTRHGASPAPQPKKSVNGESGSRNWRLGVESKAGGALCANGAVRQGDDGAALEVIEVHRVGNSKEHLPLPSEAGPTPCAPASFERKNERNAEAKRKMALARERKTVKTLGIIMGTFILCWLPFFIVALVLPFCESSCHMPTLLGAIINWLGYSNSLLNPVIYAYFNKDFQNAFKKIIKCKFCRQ
Experimental: 5-HT1 Functional Assay (cAMP)
CHO/5-HT1A cells were random seeded at a density of about 200,000/well in 24 well plates the day prior to the experiment. On the day of the experiment, cells were pretreated for 15 minutes at 37° C. with 500 μM isobutylmethylxantine (IBMX) dissolved in culture medium without serum. Wells were then divided in different groups in duplicate as follows: control, 10 μM FSK, 10 μM FSK+1 μM 5-HT as positive standard and 10 μM FSK+10 μM of the different compound under evaluation. Sample solutions were added and incubated for additional 15 minutes at 37° C. After incubation, the medium was aspirated and the reaction stopped by adding 200 μl of lysis buffer. Plates were shaken for 5 minutes, then the lysate was removed and samples were stored at 4° C. until the day of the assay. For the cAMP evaluation, samples were properly diluted and the cAMP content was measured by an enzyme immunoassay system.

5-HT1A [4] = molecular target: T2, 5-HT1A; assay: 5HT1A Radioligand Receptor Binding Assay ([3H]-8-OH-DPAT, CHO cell membranes); set-up: expressed in transfected cells; host or cells: CHO cells; settings: [3H]-8-OH-DPAT; CHO membranes, human 5-HT1A; read-out: 5-HT1A Receptor Binding IC50
Summary of the method: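 CHO-cell membranes expressing human 5-HT1A incubated with [3H]-8-OH-DPAT (0.6-0.7 nM) for 60 minutes at 27° C, filtered and scintillation counted; non-specific binding defined with 10^−5 M 5-HT. Compounds tested singly at 10^−7 M as % of control specific binding; IC50 from one-site nonlinear regression.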

T1 sequence (P14842 whole entry): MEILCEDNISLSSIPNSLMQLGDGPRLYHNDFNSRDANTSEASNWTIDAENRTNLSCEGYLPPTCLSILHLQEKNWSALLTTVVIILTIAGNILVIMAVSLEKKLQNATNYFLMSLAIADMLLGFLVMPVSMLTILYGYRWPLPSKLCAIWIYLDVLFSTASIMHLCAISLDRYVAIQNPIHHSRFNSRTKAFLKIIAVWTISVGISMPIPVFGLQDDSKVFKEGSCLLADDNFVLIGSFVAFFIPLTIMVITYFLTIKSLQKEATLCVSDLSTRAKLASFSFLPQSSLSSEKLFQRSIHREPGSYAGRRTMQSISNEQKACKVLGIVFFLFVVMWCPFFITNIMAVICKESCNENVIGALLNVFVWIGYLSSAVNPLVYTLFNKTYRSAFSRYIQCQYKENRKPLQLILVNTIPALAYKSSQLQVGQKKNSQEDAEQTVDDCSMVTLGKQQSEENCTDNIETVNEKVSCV

Compound	IC50 (5-HT2A [1]) [µM]	5-HT2A PI Turnover % inhibition (5-HT2A [2]) [%]	inhibition at 10 µM (5-HT1A [3]) [%]	IC50 (5-HT1A [4]) [µM]
Cc1cccc(N2CCN(C/C=C\Cn3c(=O)n(CCNS(C)(=O)=O)c4ccccc43)CC2)c1 [Compound 514]	0.074	41	67	0.0079
CS(=O)(=O)NCCn1c(=O)n(C/C=C/CN2CCN(c3cccc(Cl)c3)CC2)c2ccccc21 [Compound 521]	0.03	48	67	0.00061

Source: patent US6521623B1, “N,N'-disubstituted benzimidazolone derivatives with affinity at the serotonin and dopamine receptors” (Boehringer Ingelheim Pharma KG, priority 2000, dated 2003)
